The text below walks through data of patent publication US20230043863A1, “HETEROAROMATIC DERIVATIVES FOR USE AS REGULATOR, PREPARATION METHOD THEREFOR AND USE THEREOF” (JIANGSU HANSOH PHARMACEUTICAL GROUP CO., LTD., priority 2018, published 2023).

The structures appear in SMILES notation.

One may read the IC50 as the midpoint of a concentration-inhibition curve.

For one experiment, the target named is JAK1 (Homo sapiens, UniProt P23458). The experiment is described as follows: JAK kinase activity inhibition, TR-FRET (JAK1). The following applies: TR-FRET kinase assay. The experiment is classed as biochemical. The procedure:
(§1) Experimental objective: The objective of this test is to test the inhibitory effect of the compound on JAK kinase activity.
(§2) Experimental method: the fluorescence resonance energy transfer (TR-FRET) method was used to test the inhibitory effect of the compound on JAK kinase activity, and the half inhibitory concentration IC50 of the compound on JAK kinase activity was obtained.
(§3) Kinase reaction was carried out in a white 384-well plate (PerkinElmer). 1-5 μL of different concentrations of the compound diluted with DMSO and ddH2O was added into each well, and 1-5 μL of the corresponding solvent was added to the positive control wells, followed by addition of 0.1-20 nM JAK kinase solution diluted with 1-5 μL of kinase buffer (HEPES 50-250 mM, MgCl2 5-20 mM, etc.) was added to each well. 1-5 μL of kinase buffer was added to the negative control well. 1-5 μL of substrate mixture containing peptide substrate and ATP was added. The plate was incubated at room temperature for 0.5-5 hours. […], EDTA and detection solution containing labeled antibody was added, and then the plate was incubated at room temperature for another 1-24 hours. The fluorescence signal value at about 620 nm and 665 nm of each well was measured by BioTek Synergy H1 plate reader, and the inhibition rate was calculated by the fluorescence signal value. According to the inhibition rate of different concentrations, the IC50 of the compound was obtained by curve fitting.
(§4) The percentage inhibition data of the wells treated with the compound was calculated with the positive control wells (DMSO control wells) and negative control wells (no kinase added) on the plate {% inhibition rate=100-[(test compound value-negative control value)]/(Positive control value-negative control value)×100}. IC50 value was calculated by using GraphPad prism to fit the data of different concentrations and corresponding percentage inhibition rates to a 4-parameter non-linear logic formula.
In general terms: In TR-FRET formats the signal depends on donor and acceptor labels being close together.

For another experiment, the target named is TYK2 (Homo sapiens, UniProt P29597). The experiment is described as follows: JAK kinase activity inhibition, TR-FRET (TYK2). The experiment is classed as biochemical. Conditions: TR-FRET kinase assay. The procedure: as §1, §2, §3, §4
Sequence of TYK2 (P29597 whole entry): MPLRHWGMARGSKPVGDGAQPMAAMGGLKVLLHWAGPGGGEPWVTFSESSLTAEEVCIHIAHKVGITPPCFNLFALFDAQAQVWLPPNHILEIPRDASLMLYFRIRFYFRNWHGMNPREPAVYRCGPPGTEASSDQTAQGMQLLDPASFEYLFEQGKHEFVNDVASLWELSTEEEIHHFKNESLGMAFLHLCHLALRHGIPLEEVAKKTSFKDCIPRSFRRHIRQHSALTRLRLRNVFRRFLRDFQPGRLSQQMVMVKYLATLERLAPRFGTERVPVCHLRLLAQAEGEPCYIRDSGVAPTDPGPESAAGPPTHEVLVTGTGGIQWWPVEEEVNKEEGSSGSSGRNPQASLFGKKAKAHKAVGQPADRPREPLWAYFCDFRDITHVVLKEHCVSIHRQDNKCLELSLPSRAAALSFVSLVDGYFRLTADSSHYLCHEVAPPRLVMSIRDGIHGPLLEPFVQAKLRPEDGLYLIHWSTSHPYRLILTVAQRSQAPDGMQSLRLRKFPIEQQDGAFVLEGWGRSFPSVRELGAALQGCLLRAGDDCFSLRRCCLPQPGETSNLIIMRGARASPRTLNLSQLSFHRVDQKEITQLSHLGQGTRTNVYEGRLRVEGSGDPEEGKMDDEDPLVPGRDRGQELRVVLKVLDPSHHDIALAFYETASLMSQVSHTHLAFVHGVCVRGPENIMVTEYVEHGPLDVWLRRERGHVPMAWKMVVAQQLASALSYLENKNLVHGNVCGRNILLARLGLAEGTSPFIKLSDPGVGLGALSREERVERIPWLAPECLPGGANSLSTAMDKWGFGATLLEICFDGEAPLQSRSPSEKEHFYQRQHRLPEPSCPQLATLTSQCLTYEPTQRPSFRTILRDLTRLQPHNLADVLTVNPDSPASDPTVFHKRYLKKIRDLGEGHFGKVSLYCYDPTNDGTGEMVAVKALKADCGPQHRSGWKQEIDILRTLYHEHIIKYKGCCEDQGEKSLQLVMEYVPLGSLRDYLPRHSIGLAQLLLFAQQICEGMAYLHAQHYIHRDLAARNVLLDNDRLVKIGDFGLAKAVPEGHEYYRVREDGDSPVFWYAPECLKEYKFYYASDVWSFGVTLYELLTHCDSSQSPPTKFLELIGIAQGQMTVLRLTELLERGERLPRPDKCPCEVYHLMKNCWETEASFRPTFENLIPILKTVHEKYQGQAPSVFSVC

Sequence of JAK1 (P23458 whole entry): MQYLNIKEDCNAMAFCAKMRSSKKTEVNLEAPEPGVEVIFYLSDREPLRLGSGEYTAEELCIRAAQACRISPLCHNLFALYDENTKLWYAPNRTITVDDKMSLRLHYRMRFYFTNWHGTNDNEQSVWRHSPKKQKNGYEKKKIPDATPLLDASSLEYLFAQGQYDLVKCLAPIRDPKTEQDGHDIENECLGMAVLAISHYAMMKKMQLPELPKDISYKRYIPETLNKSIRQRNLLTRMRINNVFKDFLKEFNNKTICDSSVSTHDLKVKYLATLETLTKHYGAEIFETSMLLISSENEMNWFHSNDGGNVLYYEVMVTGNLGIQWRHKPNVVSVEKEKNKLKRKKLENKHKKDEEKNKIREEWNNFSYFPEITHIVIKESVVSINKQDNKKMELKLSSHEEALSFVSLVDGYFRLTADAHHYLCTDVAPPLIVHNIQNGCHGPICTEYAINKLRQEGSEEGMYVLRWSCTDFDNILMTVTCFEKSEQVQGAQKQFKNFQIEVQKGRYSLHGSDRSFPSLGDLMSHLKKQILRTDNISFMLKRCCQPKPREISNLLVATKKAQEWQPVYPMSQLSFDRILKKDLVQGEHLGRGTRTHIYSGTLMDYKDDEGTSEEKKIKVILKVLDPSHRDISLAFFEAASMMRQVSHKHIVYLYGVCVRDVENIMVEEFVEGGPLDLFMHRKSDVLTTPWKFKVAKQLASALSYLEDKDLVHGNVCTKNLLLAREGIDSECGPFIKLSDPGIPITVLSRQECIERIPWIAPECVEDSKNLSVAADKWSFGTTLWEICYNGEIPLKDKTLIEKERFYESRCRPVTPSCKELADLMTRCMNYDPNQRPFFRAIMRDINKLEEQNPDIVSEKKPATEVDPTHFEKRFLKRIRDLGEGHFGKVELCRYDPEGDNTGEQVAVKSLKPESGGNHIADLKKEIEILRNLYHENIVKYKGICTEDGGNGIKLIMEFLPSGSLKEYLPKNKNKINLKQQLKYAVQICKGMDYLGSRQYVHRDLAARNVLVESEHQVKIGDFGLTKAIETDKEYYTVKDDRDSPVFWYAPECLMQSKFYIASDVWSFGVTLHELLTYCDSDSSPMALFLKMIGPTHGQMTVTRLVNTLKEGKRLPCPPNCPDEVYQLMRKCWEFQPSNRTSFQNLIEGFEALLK

For the molecule `Cc1cc(Nc2nc(N[C@@H]3C[C@H]4CC[C@@H](C3)N4C(=O)[C@@H]3CCCN3)nc3sccc23)n[nH]1` [Embodiment 249, ((3-exo)-3-((4-((5-methyl-1H-pyrazol-3-yl)amino)thieno[2,3-d]pyrimidin-2-yl)amino)-9-azabicyclo[3.3.1]non-9-yl) ((S)-pyrrolidin-2-yl)methanone], the IC50 was 1.88 nM on JAK1 and 0.28 nM at TYK2.

Consider `Cc1cc(Nc2nc(NC3CCN(S(=O)(=O)N4CC(C#N)C4)CC3)nc3ccccc23)n[nH]1` [Embodiment 311, 1-((4-((4-((5-methyl-1H-pyrazol-3-yl)amino)quinazolin-2-yl)amino)piperidin-1-yl)sulfonyl)azetindin-3-formonitrile], for which the values for the half-maximal inhibitory concentration (IC50) on JAK1 and on TYK2 were 7.5 nM and 1.44 nM, respectively.

Take `Cc1cc(Nc2nc(N[C@@H]3C[C@H]4CC[C@@H](C3)N4CCC#N)nc3ncccc23)n[nH]1` [Embodiment 89, 3-((3-exo)-3-((4-((5-methyl-1H-pyrazol-3-yl)amino)pyrido[2,3-d]pyrimidin-2-yl)amino)-8-azabicyclo[3.2.1]oct-8-yl)propionitrile]: the values for the IC50 on JAK1 and at TYK2 were 0.65 nM and 0.15 nM, respectively.

In the case of `Cc1cc(Nc2nc(NC3CCN(S(=O)(=O)N4CC(C#N)C4)CC3)nc3sccc23)n[nH]1` [Embodiment 302, 1-((4-((4-((5-methyl-1H-pyrazol-3-yl)amino)thieno[2,3-d]pyrimidin-2-yl)amino)piperidin-1-yl)sulfonyl)azetindin-3-formonitrile], the IC50 at JAK1 stood at 1.89 nM; at TYK2 it was 0.34 nM.

With `Cc1cc(Nc2cc3nccn3c(N[C@@H]3C[C@H]4CC[C@@H](C3)N4CCC#N)n2)n[nH]1` [Embodiment 79, 3-((3-exo)-3-((7-((5-methyl-1H-pyrazol-3-yl)amino)imidazo[1,2-c]pyrimidin-5-yl)amino)-8-azabicyclo[3.2.1]oct-8-yl)propionitrile], the IC50 on JAK1 was 2.95 nM; on TYK2 it was 5.77 nM.

For the molecule `Cc1cc(Nc2nc(N[C@@H]3C[C@H]4CC[C@@H](C3)N4CCC#N)nc3cc(-c4ccncc4)ccc23)n[nH]1` [Embodiment 180, 3-((3-exo)-3-((4-((5-methyl-1H-pyrazol-3-yl)amino)-7-(pyridin-4-yl)quinazolin-2-yl)amino)-8-azabicyclo[3.2.1]oct-8-yl)propionitrile], the IC50 at JAK1 worked out at 0.35 nM; on TYK2, 0.56 nM.

Turning to `Cc1cc(Nc2nc(N[C@@H]3C[C@H]4CC[C@@H](C3)N4C(=O)C(F)F)nc3ccccc23)n[nH]1` [Embodiment 231, 2,2-difluoro-1-((3-exo)-3-((4-((5-methyl-1H-pyrazol-3-yl)amino)quinazolin-2-yl)amino)-8-azabicyclo[3.2.1]oct-8-yl)ethane-1-one], the values for the IC50 on JAK1 and on TYK2 were 11.3 nM and 3.78 nM, respectively.

With `Cc1cc(Nc2cc3ncccc3c(N[C@@H]3C[C@H]4CC[C@@H](C3)N4S(=O)(=O)c3cn[nH]c3)n2)n[nH]1` [Embodiment 315, N5-((3-exo)-8-((1H-pyrazol-4-yl)sulfonyl)-8-azabicyclo[3.2.1]oct-3-yl)-N7-(5-methyl-1H-pyrazol-3-yl)-1,6-diazanaphthalen-5,7-diamine], the results for the IC50 on JAK1 and at TYK2 were 13.1 nM and greater than 100 nM, respectively.

Take `Cc1cnc(Nc2nc(N[C@@H]3C[C@H]4CC[C@@H](C3)N4S(=O)(=O)N3CC(C#N)C3)nc3ccccc23)s1` [Embodiment 221, 1-(((3-exo)-3-((4-((5-methylthioazole-2-yl)amino)quinazolin-2-yl)amino)-8-azabicyclo[3.2.1]oct-8-yl)sulfonyl)azetindin-3-formonitrile]: the values for the IC50 at JAK1 and on TYK2 were 0.79 nM and 1.26 nM, respectively.

As to `Cc1cc(Nc2nc(N[C@@H]3C[C@H]4CC[C@@H](C3)N4S(=O)(=O)N3CC(C#N)C3)nc3cc(C)sc23)n[nH]1` [Embodiment 286, 1-(((3-exo)-3-((6-methyl-4-((5-methyl-1H-pyrazol-3-yl)amino)thieno[3,2-d]pyrimidin-2-yl)amino)-8-azabicyclo[3.2.1]oct-8-yl)sulfonyl)azetindin-3-formonitrile], the figures for the IC50 on JAK1 and at TYK2 were 0.06 nM and 14 nM, respectively.

For the molecule `Cc1cc(Nc2nc(N[C@@H]3C[C@H]4CCC[C@@H](C3)N4S(=O)(=O)c3nccn3C)nc3sccc23)n[nH]1` [Embodiment 269], the IC50 on JAK1 was determined as 3.22 nM; at TYK2 it was 3.08 nM.

`N#CCCN1[C@@H]2CC[C@H]1C[C@H](Nc1nc(Nc3cc(C4CC4)[nH]n3)cc3ncccc13)C2` [Embodiment 12, 3-((3-exo)-3-((7-((5-cyclopropyl-1H-pyrazol-3-yl)amino)-1,6-diazanaphthalen-5-yl)amino)-8-azabicyclo[3.2.1]oct-8-yl)propionitrile]: the IC50 came out at 2.71 nM at JAK1 and 10.1 nM at TYK2.

Consider `Cc1cc(Nc2nc(N[C@@H]3C[C@H]4CC[C@@H](C3)N4CCC#N)nc3[nH]ncc23)n[nH]1` [Embodiment 51, 3-((3-exo)-3-((4-((5-methyl-1H-pyrazol-3-yl)amino)-1H-pyrazolo[3,4-d]pyrimidin-6-yl)amino)-8-azabicyclo[3.2.1]oct-8-yl)propionitrile], for which the half-maximal inhibitory concentration (IC50) on JAK1 and on TYK2 was 0.24 nM in each case.

As for `Cc1cc(Nc2nc(N[C@@H]3C[C@H]4CC[C@@H](C3)N4C(=O)c3ccccn3)nc3ccccc23)n[nH]1` [Embodiment 226, ((3-exo)-3-((4-((5-methyl-1H-pyrazol-3-yl)amino)quinazolin-2-yl)amino)-8-azabicyclo[3.2.1]oct-8-yl)(pyridin-2-yl)methanone], the IC50 on JAK1 worked out at 13.1 nM; on TYK2 it was 0.3 nM.

As to `CC(C)(O)c1cnc(Nc2cc3ncccc3c(N[C@@H]3C[C@H]4CC[C@@H](C3)N4CCC#N)n2)s1` [Embodiment 31, 3-((3-exo)-3-((7-((5-(e2-hydroxypropan-2-yl)thiazol-2-yl)amino)-1,6-diazanaphthalen-5-yl)amino)-8-azabicyclo[3.2.1]oct-8-yl)propionitrile], the figures for the 50% inhibitory concentration (IC50) on JAK1 and on TYK2 were 48.6 nM and greater than 100 nM, respectively.

As for `Cc1cc(Nc2nc(N[C@@H]3C[C@H]4CC[C@@H](C3)N4S(=O)(=O)c3ccccn3)nc3sccc23)n[nH]1` [Embodiment 266, N4-(5-methyl-1H-pyrazol-3-yl)-N2-((3-exo)-8-(pyridin-2-ylsulfonyl)-8-azabicyclo[3.2.1]oct-3-yl)thieno[2,3-d]pyrimidin-2,4-diamine], the values for the IC50 at JAK1 and at TYK2 were 10.5 nM and 10.2 nM, respectively.

`Cc1cc(Nc2nc(N[C@@H]3C[C@H]4CC[C@@H](C3)N4CCC#N)nc3c(Cl)cccc23)n[nH]1` [Embodiment 177, 3-((3-exo)-3-((8-chloro-4-((5-methyl-1H-pyrazol-3-yl)amino)quinazolin-2-yl)amino)-8-azabicyclo[3.2.1]oct-8-yl)propionitrile]: the figures for the concentration for half-maximal inhibition (IC50) on JAK1 and at TYK2 were 3.36 nM and 1.58 nM, respectively.

As to `Cc1cc(Nc2nc(N[C@@H]3C[C@H]4CC[C@@H](C3)N4S(=O)(=O)c3cccnc3)nc3ccccc23)n[nH]1` [Embodiment 232], the IC50 came to 7.2 nM at JAK1 and 2 nM on TYK2.

As for `Cc1cc(Nc2nc(N[C@@H]3C[C@H]4CC[C@@H](C3)N4C(=O)c3ccncc3)nc3ccccc23)n[nH]1` [Embodiment 228, ((3-exo)-3-((4-((5-methyl-1H-pyrazol-3-yl)amino)quinazolin-2-yl)amino)-8-azabicyclo[3.2.1]oct-8-yl)(pyridin-4-yl)methanone], the values for the IC50 on JAK1 and at TYK2 were 2.63 nM and 9.99 nM, respectively.
